Where two headings read alike, the source gives them in different places.
Columns and labels:
P. aeruginosa AUMC-Pa-3 = experiment: microbe, parasite or virus in culture; settings: for MIC: Pseudomonas aeruginosa, AUMCPA3, 18 h, read-out: MICa: MIC of the antibiotic; for FICI / MICac: MIC of the antibiotic in the combination: strain AUMC-Pa-3; for FICI: antibiotic + D-11 (MICb/MICbc 128/4); for MICac: MIC of the antibiotic in the combination: with D-11 at MICbc 4, unit not given
In short: (§1)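 Broth microdilution per CLSI in MHB: two-fold drug dilutions mixed with an equal volume of bacterial suspension at approximately 1 × 10^6 CFU/mL, incubated 18 h at 37 °C. MIC was the lowest concentration with no visible growth; triplicate runs.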

P. aeruginosa AUMC-Pa-4 = experiment: microbe, parasite or virus in culture; settings: for MIC: Pseudomonas aeruginosa, AUMCPA4, 18 h, read-out: MICa: MIC of the antibiotic; for FICI / MICac: MIC of the antibiotic in the combination: strain AUMC-Pa-4; for FICI: antibiotic + D-11 (MICb/MICbc 128/4); for MICac: MIC of the antibiotic in the combination: with D-11 at MICbc 4, unit not given
In short: as §1

P. aeruginosa AUMC-Pa-5 = experiment: microbe, parasite or virus in culture; settings: for MIC: Pseudomonas aeruginosa, AUMCPA5, 18 h, read-out: MICa: MIC of the antibiotic; for FICI / MICac: MIC of the antibiotic in the combination: strain AUMC-Pa-5; for FICI: antibiotic + D-11 (MICb/MICbc 64/4); for MICac: MIC of the antibiotic in the combination: with D-11 at MICbc 4, unit not given
In short: as §1

P. aeruginosa AUMC-Pa-6 = experiment: microbe, parasite or virus in culture; settings: for MIC: Pseudomonas aeruginosa, AUMCPA6, 18 h, read-out: MICa: MIC of the antibiotic; for FICI / MICac: MIC of the antibiotic in the combination: strain AUMC-Pa-6; for FICI: antibiotic + D-11 (MICb/MICbc 64/4); for MICac: MIC of the antibiotic in the combination: with D-11 at MICbc 4, unit not given
In short: as §1

P. aeruginosa PAO1 = experiment: microbe, parasite or virus in culture; settings: PAO1; for MIC: Pseudomonas aeruginosa, PAO1, 18 h, read-out: MICa: the MIC of antibiotics, S3 Table, antibiotic alone; for FICI / MICac: the MIC for the antibiotic in the combination: S3 Table
In short: as §1

P. aeruginosa ATCC27853 = experiment: microbe, parasite or virus in culture; set-up: MICa: MIC of the antibiotic / MICac: MIC of the antibiotic in the combination: unit not given beside the values; settings: for MIC: Pseudomonas aeruginosa, ATCC27853, 18 h, read-out: MICa: MIC of the antibiotic; for FICI / MICac: MIC of the antibiotic in the combination: strain ATCC27853; for FICI: antibiotic + D-11 (MICb/MICbc 32/4); for MICac: MIC of the antibiotic in the combination: with D-11 at MICbc 4, unit not given
In short: as §1

P. aeruginosa NR-31040 = experiment: microbe, parasite or virus in culture; set-up: MICa: MIC of the antibiotic / MICac: MIC of the antibiotic in the combination: unit not given beside the values; settings: for MIC: Pseudomonas aeruginosa, NR31040, 18 h, read-out: MICa: MIC of the antibiotic; for FICI / MICac: MIC of the antibiotic in the combination: strain NR-31040; for FICI: antibiotic + D-11 (MICb/MICbc 128/4); for MICac: MIC of the antibiotic in the combination: with D-11 at MICbc 4, unit not given
In short: as §1

P. aeruginosa NR-31041 = experiment: microbe, parasite or virus in culture; set-up: MICa: MIC of the antibiotic / MICac: MIC of the antibiotic in the combination: unit not given beside the values; settings: for MIC: Pseudomonas aeruginosa, NR31041, 18 h, read-out: MICa: MIC of the antibiotic; for FICI / MICac: MIC of the antibiotic in the combination: strain NR-31041; for FICI: antibiotic + D-11 (MICb/MICbc 64/4); for MICac: MIC of the antibiotic in the combination: with D-11 at MICbc 4, unit not given
In short: as §1

P. aeruginosa PA14 = experiment: microbe, parasite or virus in culture; set-up: MICa: MIC of the antibiotic / MICac: MIC of the antibiotic in the combination: unit not given beside the values; settings: for MIC: Pseudomonas aeruginosa, PA14, 18 h, read-out: MICa: MIC of the antibiotic; for FICI / MICac: MIC of the antibiotic in the combination: strain PA14; for FICI: antibiotic + D-11 (MICb/MICbc 128/4); for MICac: MIC of the antibiotic in the combination: with D-11 at MICbc 4, unit not given
In short: as §1

P. aeruginosa PAK = experiment: microbe, parasite or virus in culture; set-up: MICa: MIC of the antibiotic / MICac: MIC of the antibiotic in the combination: unit not given beside the values; settings: for MIC: Pseudomonas aeruginosa, 18 h, read-out: MICa: MIC of the antibiotic; for FICI / MICac: MIC of the antibiotic in the combination: strain PAK; for FICI: antibiotic + D-11 (MICb/MICbc 64/4); for MICac: MIC of the antibiotic in the combination: with D-11 at MICbc 4, unit not given
In short: as §1

P. aeruginosa HM-214 = settings: strain HM-214; antibiotic + D-11 (MICb/MICbc 128/4)
In short: as §1

P. aeruginosa AUMC-Pa-1 = settings: strain AUMC-Pa-1; antibiotic + D-11 (MICb/MICbc 128/4)
In short: as §1

P. aeruginosa AUMC-Pa-2 = settings: strain AUMC-Pa-2; antibiotic + D-11 (MICb/MICbc 64/4)
In short: as §1

[1] = tested on: clinical P. aeruginosa isolates; experiment: microbe, parasite or virus in culture; settings: Pseudomonas aeruginosa, 18 h, antibiotic alone
In short: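 Broth microdilution per CLSI in MHB, two-fold drug dilutions mixed with an equal volume of bacteria at about 1 × 10^6 CFU/mL. After 18 h at 37 °C, MIC taken as the lowest concentration with no visible growth; run in triplicate.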

[2] = read-out: Antibiotic sensibility (MIC) of clinical P. aeruginosa isolate AUMC-Pa-1, strain AUMC-Pa-1
[3] = read-out: Antibiotic sensibility (MIC) of clinical P. aeruginosa isolate AUMC-Pa-2, strain AUMC-Pa-2
[4] = read-out: Antibiotic sensibility (MIC) of clinical P. aeruginosa isolate AUMC-Pa-3, strain AUMC-Pa-3
[5] = read-out: Antibiotic sensibility (MIC) of clinical P. aeruginosa isolate AUMC-Pa-4, strain AUMC-Pa-4
[6] = read-out: Antibiotic sensibility (MIC) of clinical P. aeruginosa isolate AUMC-Pa-5, strain AUMC-Pa-5
[7] = read-out: Antibiotic sensibility (MIC) of clinical P. aeruginosa isolate AUMC-Pa-6, strain AUMC-Pa-6
[8] = read-out: Antibiotic sensibility (MIC) of clinical P. aeruginosa isolate HM-214, strain HM-214
[9] = read-out: Antibiotic sensibility (MIC) of clinical P. aeruginosa isolate NR-31040, strain NR-31040
[10] = read-out: Antibiotic sensibility (MIC) of clinical P. aeruginosa isolate NR-31041, strain NR-31041

SMILES: CCn1cc(C(=O)O)c(=O)c2ccc(C)nc21 [Nalidixic Acid]
- MIC (P. aeruginosa AUMC-Pa-3): > 128 µM
- FICI (P. aeruginosa AUMC-Pa-3): 0.063
- MICac: MIC of the antibiotic in the combination (P. aeruginosa AUMC-Pa-3): 8
- MIC (P. aeruginosa AUMC-Pa-4): > 128 µM
- FICI (P. aeruginosa AUMC-Pa-4): 0.531
- MICac: MIC of the antibiotic in the combination (P. aeruginosa AUMC-Pa-4): >128/128
- MIC (P. aeruginosa AUMC-Pa-5): > 128 µM
- FICI (P. aeruginosa AUMC-Pa-5): 1.063
- MICac: MIC of the antibiotic in the combination (P. aeruginosa AUMC-Pa-5): >128/>128
- MIC (P. aeruginosa AUMC-Pa-6): > 128 µM
- FICI (P. aeruginosa AUMC-Pa-6): 0.188
- MICac: MIC of the antibiotic in the combination (P. aeruginosa AUMC-Pa-6): 32
- MIC (P. aeruginosa PAO1): > 128 µM
- FICI (P. aeruginosa PAO1; antibiotic + 2 μM D-11): 0.094
- FICI (P. aeruginosa PAO1; antibiotic + 4 μM D-11): 0.141
- MICac: the MIC for the antibiotic in the combination (P. aeruginosa PAO1; with 2 μM D-11): 8 µM
- MICac: the MIC for the antibiotic in the combination (P. aeruginosa PAO1; with 4 μM D-11): 4 µM
- MIC (P. aeruginosa ATCC27853): > 128 µM
- FICI (P. aeruginosa ATCC27853): 0.156
- MICac: MIC of the antibiotic in the combination (P. aeruginosa ATCC27853): 8
- MIC (P. aeruginosa NR-31040): > 128 µM
- FICI (P. aeruginosa NR-31040): 0.063
- MICac: MIC of the antibiotic in the combination (P. aeruginosa NR-31040): 8
- MIC (P. aeruginosa NR-31041): > 128 µM
- FICI (P. aeruginosa NR-31041): 0.125
- MICac: MIC of the antibiotic in the combination (P. aeruginosa NR-31041): 16
- MIC (P. aeruginosa PA14): > 128 µM
- FICI (P. aeruginosa PA14): 0.094
- MICac: MIC of the antibiotic in the combination (P. aeruginosa PA14): 16
- MIC (P. aeruginosa PAK): > 128 µM
- FICI (P. aeruginosa PAK): 0.125
- MICac: MIC of the antibiotic in the combination (P. aeruginosa PAK): 16
- FICI (P. aeruginosa HM-214): 0.531
- FICI (P. aeruginosa AUMC-Pa-1): 0.531
- FICI (P. aeruginosa AUMC-Pa-2): 0.188
- MIC [1, 2]: > 128 µM
- MIC [1, 3]: > 128 µM
- MIC [1, 4]: > 128 µM
- MIC [1, 5]: > 128 µM
- MIC [1, 6]: > 128 µM
- MIC [1, 7]: > 128 µM
- MIC [1, 8]: > 128 µM
- MIC [1, 9]: > 128 µM
- MIC [1, 10]: > 128 µM

SMILES: CO[C@@H]1[C@@H](OC(N)=O)[C@@H](O)[C@H](Oc2ccc3c(O)c(NC(=O)c4ccc(O)c(CC=C(C)C)c4)c(=O)oc3c2C)OC1(C)C [Novobiocin]
- MIC (P. aeruginosa AUMC-Pa-3): > 128 µM
- FICI (P. aeruginosa AUMC-Pa-3): 0.033
- MICac: MIC of the antibiotic in the combination (P. aeruginosa AUMC-Pa-3): 0.5
- MIC (P. aeruginosa AUMC-Pa-4): > 128 µM
- FICI (P. aeruginosa AUMC-Pa-4): 0.531
- MICac: MIC of the antibiotic in the combination (P. aeruginosa AUMC-Pa-4): >128/128
- MIC (P. aeruginosa AUMC-Pa-5): > 128 µM
- FICI (P. aeruginosa AUMC-Pa-5): 0.563
- MICac: MIC of the antibiotic in the combination (P. aeruginosa AUMC-Pa-5): >128/128
- MIC (P. aeruginosa AUMC-Pa-6): > 128 µM
- FICI (P. aeruginosa AUMC-Pa-6): 0.563
- MICac: MIC of the antibiotic in the combination (P. aeruginosa AUMC-Pa-6): >128/128
- reduction of the MICs (P. aeruginosa PAO1; in the presence of 4 μM of D-11): 512 fold
- MIC (P. aeruginosa PAO1): > 128 µM
- FICI (P. aeruginosa PAO1; antibiotic + 2 μM D-11): 0.064
- MICac: the MIC for the antibiotic in the combination (P. aeruginosa PAO1; with 2 μM D-11): 0.5 µM
- MICac: the MIC for the antibiotic in the combination (P. aeruginosa PAO1; with 4 μM D-11): 0.5 µM
- MIC (P. aeruginosa ATCC27853): > 128 µM
- FICI (P. aeruginosa ATCC27853): 0.133
- MICac: MIC of the antibiotic in the combination (P. aeruginosa ATCC27853): 2
- MIC (P. aeruginosa NR-31040): > 128 µM
- FICI (P. aeruginosa NR-31040): 0.281
- MICac: MIC of the antibiotic in the combination (P. aeruginosa NR-31040): 64
- MIC (P. aeruginosa NR-31041): > 128 µM
- FICI (P. aeruginosa NR-31041): 0.078
- MICac: MIC of the antibiotic in the combination (P. aeruginosa NR-31041): 4
- MIC (P. aeruginosa PA14): > 128 µM
- FICI (P. aeruginosa PA14): 0.063
- MICac: MIC of the antibiotic in the combination (P. aeruginosa PA14): 8
- MIC (P. aeruginosa PAK): > 128 µM
- FICI (P. aeruginosa PAK): 0.070
- MICac: MIC of the antibiotic in the combination (P. aeruginosa PAK): 2
- FICI (P. aeruginosa HM-214): 0.531
- FICI (P. aeruginosa AUMC-Pa-1): 0.035
- FICI (P. aeruginosa AUMC-Pa-2): 0.070
- MIC [1, 2]: > 128 µM
- MIC [1, 3]: > 128 µM
- MIC [1, 4]: > 128 µM
- MIC [1, 5]: > 128 µM
- MIC [1, 6]: > 128 µM
- MIC [1, 7]: > 128 µM
- MIC [1, 8]: > 128 µM
- MIC [1, 9]: > 128 µM
- MIC [1, 10]: > 128 µM
